This is an account of results in a melting point compilation (Tetko et al.; mined from patent text by program, amines drawn as free bases though some values may be those of a salt).

Each structure is given as a SMILES string.

What is called melting point is the temperature of the solid-liquid transition. As to `O=C1Cc2c([nH]c3ccc([N+](=O)[O-])cc23)-c2cc(Br)ccc2N1`, the melting point is greater than 330 °C.

The molecule `CCCCC(CC)Cn1c(C)cc(C)c(C#N)c1=O` (centres undefined) had a melting point of 84 to 89 °C.

On to `CCCCCCCCCCCCCCCCCC(=O)NCNC(=O)CCSc1ccc(O)cc1`, for which the melting point was 172 °C.

In turn, `Cc1c(C)c2c(c(Cl)c1C=O)CC(C)(C)C2` displayed a melting point of 108 °C.

For the molecule `S=c1cc(-c2ccc(Cl)cc2)ss1`, the melting point amounted to 135 °C.

For `COc1cc2ccnc(C=Cc3c(Cl)cccc3Cl)c2cc1OC`, the melting point lay in the range of 145 to 146 °C.

Consider `CC1CNc2cccc3c(=O)c(C(=O)O)cn1c23` (centres undefined), for which the melting point was greater than 250 °C.

Regarding `Cc1c(-c2ccccc2)[nH]c(=O)n1C1CCN(Cc2cccc(Br)c2)CC1`, the melting point is 263 to 265 °C.

`N#CCCNC(=O)c1cccc(-c2ccc3c(c2)N(Cc2ccc(Cl)c(Cl)c2)CC3)c1` returned a melting point of 135 to 136 °C.

In the case of `Nc1ncc(C(F)(F)F)cc1[N+](=O)[O-]`, the melting point is 110 to 112 °C.

Regarding `COC(=O)c1ccc2nc(-c3ccc4c(c3)C(C)(C)CCC4(C)C)[nH]c2c1`, the melting point was 223 °C.

`Cc1cc(C)cc(CCCn2c(=O)[nH]c3cc(Cl)cc(Cl)c3c2=O)c1`: the melting point is 205 to 208 °C.

For the molecule `CCCCn1c(=O)n(C2OC(CO)C(O)C2O)c2nc(N)[nH]c(=O)c21` (centres undefined), the melting point was greater than 230 °C.

Molecule `CN1CCC(Oc2c(F)cc3c(=O)c(C(=O)O)cn(C4CC4)c3c2F)CC1` returned a melting point of 166 to 167 °C.

Turning to `COC(=O)C1(NC(C)=O)CCc2cc(OC)ccc2C1` (centres undefined), the melting point lay in the range of 153 to 154 °C.

Molecule `O=C1c2ccccc2C(=O)c2cc(Br)c(Br)cc21` came in with a melting point greater than 300 °C.

`N#CNC(=S)Nc1ccccc1` had a melting point greater than 250 °C.

The molecule `CCCCNC(=O)NCCCn1c(CCOC)nc2c(N)nc3ccccc3c21` showed a melting point of 159 to 160 °C.

For the molecule `CSc1ncc2ccc(Cl)nc2n1`, the melting point lay within 201 to 203 °C.

Turning to `CCOC(=O)C1=C(C)N=C(SCc2ccc(OC)cc2)N(C(=O)OCC)C1c1ccccc1OC` (centres undefined), the melting point is 116 to 118 °C.

Consider `CS(=O)(=O)c1cnc(NC(=O)c2ccccc2O)s1`, for which the melting point was in the range of 282 to 283 °C.

`C=C(c1ccccc1N1CCCCC1)C(C(N)=O)c1ccc(C(=O)O)cc1` (centres undefined) gave a melting point of 158 to 160 °C.

`O=[N+]([O-])C=Cc1cc(OCc2ccccc2)c(OCc2ccccc2)cc1[N+](=O)[O-]` registered a melting point of 162 to 164 °C.

For `CN(Sc1ccc(C(C)(C)C)cc1)C(=O)Oc1cccc2c1OC(C)(C)C2`, the melting point lay in the range of 120 to 123 °C.

As for `CC(=O)c1ccc2cc(C(C)Br)ccc2c1` (centres undefined), the melting point was 64 to 66 °C.

On to `Cc1ccc(S(=O)(=O)Nc2ccc(C#N)cc2Cl)cc1`, for which the melting point is 186 to 187 °C.

In the case of `CS(=O)c1ccc(-c2ccc(C=C(Cl)Cl)s2)cc1` (centres undefined), the melting point was in the range of 124 to 126 °C.

The molecule `Cc1ccc(S(=O)(=O)N2CCC(c3ccccc3)CC2)cc1` had a melting point of 153 to 154 °C.

In turn, `Cc1c(NC(=O)c2ccc(-c3ccccc3)c(F)c2)ccc2cc(CN3CCCC3)cnc12` returned a melting point of 156 to 158 °C.

`CC(C)[C@H](S)C(=O)NC(C)(C)C(=O)N[C@@H](COCc1ccccc1)C(=O)O` had a melting point of 57 to 70 °C.

Regarding `COC(=O)c1ccccc1-n1c(CCl)nc2ccc(C(F)(F)F)cc2c1=O`, the melting point lay in the range of 169 to 170 °C.

In turn, `COc1ccc(CN2CCC(c3cn(Cc4ccc(Cl)s4)c4cnccc34)CC2)cc1C(=O)O` registered a melting point of 125 to 127 °C.

Turning to `Clc1ccc2nc(Cl)nc(-c3ccccc3)c2c1`, the melting point lay within 159 to 160 °C.

`O=Cc1cc(Cl)c2c(c1)CCCO2` registered a melting point of 51 °C.

As for `COc1ccc(S(=O)(=O)n2ccc3ccnc(-c4ccc(N(C)C)cc4)c32)cc1`, the melting point was 112 to 114 °C.

For the molecule `O=C(c1cccs1)N1CCN(c2c([N+](=O)[O-])c(=O)n(Cc3ccccc3)c3ncccc23)CC1`, the melting point turned out to be 255 °C.

In turn, `CCOC(=O)c1c(Cl)nc2cc3c(cc2c1CCl)OCCO3` yielded a melting point greater than 260 °C.

On to `Cc1cc(-n2cnn(Cc3ccc(C(F)(F)F)cc3)c2=O)sc1C(=O)NCc1cccnc1`, for which the melting point lay in the range of 176 to 178 °C.

On to `CS(=O)(=O)c1ccc(-c2c(-c3ccc(F)cc3)nn3c(-c4ccc(F)cc4)coc23)cc1`, for which the melting point fell in the range of 289 to 291 °C.

As for `CC1CC2C3CCC4=CC(=O)C=CC4(C)C3C(=O)CC2(C)C1C(=O)COC(=O)C(C)(C)C` (centres undefined), the melting point lay within 201 to 202 °C.

`COc1ccc(C=CC(=O)C2C(=O)CCC2=O)cc1O` gave a melting point of 61 to 62 °C.

Take `O=C(Nc1nccs1)c1cn(CC2CCCC2)c2cc(Cl)ccc12`: the melting point fell in the range of 117 to 119 °C.

Turning to `O=c1[nH]c2cc(Br)cc(Br)c2c(=O)n1Cc1ccccc1`, the melting point was greater than 280 °C.

Turning to `CC(=O)Oc1c(C)cc(N(C)C(=O)OC(C)(C)C)c(C)c1C`, the melting point lay within 103 to 104 °C.

The molecule `Oc1cc2cc(-c3ccccc3)sc2c(Cl)c1Cl` registered a melting point of 122 to 124 °C.

`CCOCc1nc2c(N)nc3ccccc3c2n1N1CCOCC1` had a melting point of 223 to 224 °C.

On to `CON(c1ccc([N+](=O)[O-])cc1[N+](=O)[O-])S(=O)(=O)c1ccc(C)cc1`, for which the melting point lay within 146 to 148 °C.

In the case of `C#CCNC(=O)c1cccc(F)c1N`, the melting point is 89 to 91 °C.

`CCOc1cc(CCCN2CCc3cc(OC)c(OC)cc3C2)ccc1NC(=O)c1cccc2c(=O)c3cccc(OC)c3[nH]c12` displayed a melting point of 198 °C.

For `O=c1ccc(Cc2cccnc2)c[nH]1`, the melting point was 142 to 144 °C.

`O=C1CCc2nc(-c3ccccc3)ccc21`: the melting point fell in the range of 177 to 178 °C.

As for `CC(C)(C)c1nc(-c2ccc(F)cc2)c(-c2ccc(S(C)(=O)=O)cc2)o1`, the melting point is 130 to 131 °C.

`CCCCC[C@H]1CC[C@H](c2ccc(CC(=O)OCc3ccc(C#N)cc3)cc2)CC1` had a melting point of 85 °C.

`OCCc1cccc2c(-c3ccccc3)c(Br)oc12` yielded a melting point of 108 to 112 °C.

As to `C=C(c1cc(Cl)ccc1N1CCCCC1)C(C(N)=O)c1ccc(C(=O)OCC)cc1` (centres undefined), the melting point lay in the range of 142 to 145 °C.

`CNc1nc(-c2cccc(CCc3ccccc3)c2)c2cc(OC)c(OC)cc2n1` had a melting point of 95 to 97 °C.

With `O=C1C(=O)c2ccccc2C2=C1SCC1(CCSCC1)O2`, the melting point fell in the range of 221 to 223 °C.

As for `Cc1ccc(O)c(C)c1N`, the melting point is 177 to 179 °C.

As to `COC(=O)c1c(C)n(-c2ccccc2)c(C)c(C(=O)OC)c1=O`, the melting point came to 215 °C.

Molecule `Cc1ccc(C(O)(c2ccc(C)cc2)C2CCN(CCCC(O)c3ccc(C(C)(C)C(=O)O)cc3)CC2)cc1` (centres undefined) gave a melting point of 208 to 215 °C.

In turn, `O=c1[nH]c2ncccc2c(=O)n1CCCCCCn1c(=O)[nH]c2ncccc2c1=O` yielded a melting point of 324 to 328 °C.

`CN(CCO)C(c1ccc(Cl)cc1)c1ccc(Cl)cc1`: the melting point fell in the range of 49 to 50 °C.

In the case of `Cc1cc(Oc2c(Cl)cc(C(F)(F)F)cc2Cl)nn1C(=O)NCCO`, the melting point was in the range of 124 to 126 °C.

`CCOC(=O)C(C)=NNc1ccc(F)c(Cl)c1` returned a melting point of 89 to 91 °C.

Molecule `Cc1cc(C(=O)c2sc(Nc3ccc(N4CCN(C)CC4)cc3)nc2N)c(C)s1` showed a melting point of 205 to 206 °C.

Regarding `CNC(=O)c1cc(Oc2ccc(NC(=O)Nc3ccc4c(c3)C(F)(F)OC(F)(F)O4)c(S(C)(=O)=O)c2)ccn1`, the melting point lay in the range of 222 to 224 °C.

`COc1cc(NC(=O)N2CCOCN2)c(F)cc1Cl`: the melting point was in the range of 145 to 147 °C.

Molecule `COc1ccccc1CC(O)(c1ccccc1)C1CCN(CCCC(=O)c2ccc(C(C)(C)C)cc2)CC1` (centres undefined) returned a melting point of 118 to 120 °C.

In turn, `CC(=O)Nc1c(C#N)cnn1-c1c(Cl)cc(Cl)c(Cl)c1Cl` registered a melting point of 115 °C.

`CCN(CC)C(=O)c1c(C=O)cccc1[Si](C)(C)C`: the melting point was in the range of 63.5 to 65.5 °C.

On to `CCCN(CCC)C1Cc2c(C(C)=O)ccc3c2C(CN3)C1` (single isomer, unassigned; (+)), for which the melting point was 76 to 77 °C.

On to `CC(C(=O)O)c1ccc(-n2cc(Cl)cn2)c(Cl)c1` (centres undefined), for which the melting point was 102 to 103 °C.

`CC(C)(C)OC(=O)CCc1cc(S(C)(=O)=O)cc(-c2nc(=O)c3ccc(F)cc3s2)n1` displayed a melting point of 178 °C.

Turning to `C=CCN1C(=O)C(C)(CN2CCN(c3ccccc3OC)CC2)N=C1c1cccnc1` (centres undefined), the melting point was 66 to 69 °C.

`Cc1ccc(S(=O)(=O)OC2COc3ccc4ncccc4c3C2)cc1` (centres undefined) yielded a melting point of 168 to 170 °C.

On to `O=C1CCC(C2CCCCC2)C(=O)C1` (centres undefined), for which the melting point was 137 to 140 °C.

Turning to `Cc1ccc(N2C(=O)C(O)=C(C(=O)c3ccc(OC(F)(F)F)cc3)C2c2ccc(Cn3nccn3)cc2)nn1` (centres undefined), the melting point stood at 277 °C.

`COC(=O)c1cc(C(=O)NN2CCOCC2)c2cc(Cc3ccc(F)cc3)cnc2c1O` registered a melting point greater than 250 °C.

`CCC(OC)(c1cccc(OCc2ccc3c(-c4ccoc4)cc(C#N)cc3c2)c1)c1nccs1` (centres undefined) showed a melting point of 156 to 157 °C.

`CCCCCCc1ccc(-c2cnn(C(C)(C)Cc3ccc(C)cc3)c2O)cc1`: the melting point lay within 149 to 151 °C.

`O=C1NC(=O)C2(CC(O)c3ccc(F)cc32)N1` (centres undefined) had a melting point of 209 to 211 °C.

Molecule `O=C(O)COc1ccc(SCCc2ccc(-c3ccc(C(F)(F)F)cc3)cc2)c2c1CCC2` showed a melting point of 170 to 172 °C.

In turn, `CC1(C)Oc2ccc(C#N)cc2C(Oc2ccc(O)nn2)C1(C)O` (centres undefined) displayed a melting point of 131 to 134 °C.

`CS(=O)(=O)c1ccc(-c2cc(CO)sc2-c2ccc(F)cc2)cc1` gave a melting point of 140 to 142 °C.

The molecule `CNc1nc(-c2cccc(-c3ccccc3)c2)c2cc(OC)c(OC)cc2n1` displayed a melting point of 183 to 185 °C.

Molecule `O=C(O)c1cnc(N2CCN(S(=O)(=O)c3ccc4ccccc4c3)CC2)nc1` yielded a melting point greater than 260 °C.

The molecule `CC(C)C[C@H](NC(=O)OC(C)(C)C)[C@H](O)CO` gave a melting point of 58 to 59 °C.

For `CCOC(=O)CSc1nc(O)ns1`, the melting point came to 131 °C.

As for `ClCc1cn2cc(Br)ccc2n1`, the melting point lay within 125 to 126 °C.
